The results in this text go back to patent publication US10385019B2, “Inhibitors of EGFR and methods of use thereof” (Dana-Farber Cancer Institute, Inc., priority 2015, dated 2019).

Chain of EGFR T790M/L858R Ba/F3 cell line (P00533 whole entry T790M/L858R, the tested form may be a part): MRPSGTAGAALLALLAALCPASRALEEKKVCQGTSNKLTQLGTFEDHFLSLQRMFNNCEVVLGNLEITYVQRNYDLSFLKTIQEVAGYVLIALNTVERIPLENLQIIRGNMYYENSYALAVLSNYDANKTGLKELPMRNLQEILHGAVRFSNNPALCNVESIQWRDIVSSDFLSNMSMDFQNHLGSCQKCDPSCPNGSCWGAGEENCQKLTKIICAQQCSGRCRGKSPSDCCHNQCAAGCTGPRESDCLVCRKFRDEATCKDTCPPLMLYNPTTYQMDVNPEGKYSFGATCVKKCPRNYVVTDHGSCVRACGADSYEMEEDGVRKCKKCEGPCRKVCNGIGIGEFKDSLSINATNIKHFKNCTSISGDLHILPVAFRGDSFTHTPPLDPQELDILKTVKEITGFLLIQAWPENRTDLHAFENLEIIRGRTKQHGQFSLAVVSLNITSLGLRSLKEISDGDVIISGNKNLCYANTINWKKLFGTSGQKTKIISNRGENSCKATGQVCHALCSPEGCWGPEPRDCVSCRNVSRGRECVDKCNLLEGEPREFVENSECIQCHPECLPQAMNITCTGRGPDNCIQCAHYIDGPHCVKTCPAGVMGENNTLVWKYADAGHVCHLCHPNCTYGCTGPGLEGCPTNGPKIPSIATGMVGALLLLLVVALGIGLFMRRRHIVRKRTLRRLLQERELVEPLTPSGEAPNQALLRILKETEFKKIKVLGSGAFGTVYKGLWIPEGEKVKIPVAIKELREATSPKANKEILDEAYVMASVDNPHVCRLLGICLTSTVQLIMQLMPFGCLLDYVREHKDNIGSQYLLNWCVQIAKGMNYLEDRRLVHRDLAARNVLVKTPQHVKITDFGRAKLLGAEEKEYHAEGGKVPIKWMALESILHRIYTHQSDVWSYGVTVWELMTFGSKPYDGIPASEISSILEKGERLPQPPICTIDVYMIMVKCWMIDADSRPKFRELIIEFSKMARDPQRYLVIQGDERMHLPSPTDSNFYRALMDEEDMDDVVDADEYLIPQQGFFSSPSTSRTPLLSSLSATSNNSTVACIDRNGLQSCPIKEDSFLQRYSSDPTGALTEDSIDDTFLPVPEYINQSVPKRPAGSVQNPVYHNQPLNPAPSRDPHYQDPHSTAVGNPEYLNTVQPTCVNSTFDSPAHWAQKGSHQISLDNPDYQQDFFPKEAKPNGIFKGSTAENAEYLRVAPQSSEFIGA

In the assay the target is EGFR T790M/L858R Ba/F3 cell line (Homo sapiens, UniProt P00533, T790M/L858R, cells depend on it). The experiment in a line: Ba/F3 cell proliferation model. Type of assay: cell-based, murine. The settings on record: combined with cetuximab (% cetuximab, 1.0 μM drug concentration with 1.0 μg/mL cetuximab). From the text:
The selectivity between wild-type EGFR and EGFR containing one or more mutations as described herein can also be measured using cellular proliferation assays where cell proliferation is dependent on kinase activity. For example, murine Ba/F3 cells transfected with a suitable version of wild-type EGFR (such as VIII; containing a WT EGFR kinase domain), or Ba/F3 cells transfected with L858R/T790M, Del/T790M/L718Q, L858R/T790M/L718Q, L858R/T790M/C797S, Del/T790M/C797S, L858R/T790M/I941R, or Exon 19 deletion/T790M can be used.
Cell lines are plated in media. The compounds of the present disclosure are then serially diluted and transferred to the cells. Cell viability is measured via a luminescent readout. Data is analyzed by non-linear regression curve-fitting. […]
The EGFR mutant L858R, Del E746_A750, L858R/T790M, DelE746_A750/T790M, L858R/T790M/C797S and Del/T790M/C797S Ba/F3 cells have been previously described (Zhou, W., Ercan, D., Chen, L., Yun, C. H., Li, D., Capelletti, M., Cortot, A. B., Chirieac, L., Iacob, R. E., Padera, R., et al. “Novel mutant-selective EGFR kinase inhibitors against EGFR T790M,” Nature 462, (2009), 1070-1074). All cell lines were maintained in RPMI 1640 (Cellgro; Mediatech Inc., Herndon, Calif.) supplemented with 10% FBS 100 units/mL penicillin, 100 units/mL streptomycin, and 2 mM glutamine. L858R cells were maintained in ACL-4 media (Invitrogen, Carlsbad, Calif.) supplemented with 5% FBS, 100 units/mL penicillin, 100 units/mL streptomycin, and 2 mM glutamine. The EGFR I941R mutation was introduced via site directed mutagenesis using the Quick Change Site-Directed Mutagenesis kit (Stratagene; La Jolla, Calif.) according to the manufacturer's instructions. All constructs were confirmed by DNA sequencing. The constructs were shuttled into the retroviral vector JP 1540 using the BD Creator™ System (BD Biosciences). Ba/F3 cells were infected with retrovirus and according to standard protocols, as described previously (Zhou et al, Nature 2009). Stable clones were obtained by selection in puromycin (2 μg/ml).
Growth and inhibition of growth was assessed by MTS assay and was performed according to previously established methods (Zhou et al., Nature 2009). The MTS assay is a colorimetric method for determining the number of viable cells that is based on the bioreduction of MTS by cells to a formazan product that is soluble in cell culture medium and can be detected spectrophotometrically. Ba/F3 cells of different EGFR genotypes were exposed to treatment for 72 hours and the number of cells used per experiment determined empirically and has been previously established (Zhou et al., Nature 2009). All experimental points were set up in six wells and all experiments were repeated at least three times. […] The curves were fitted using a non-linear regression model with a sigmoidal dose response.
Inhibition data of an EGFR T790M/L858R Ba/F3 cell line.
For the compound `C[C@@H](NC(=O)[C@H](c1ccccc1)N1Cc2ccccc2C1=O)c1ccccc1` [Compound I-1, (S)-2-(1-oxoisoindolin-2-yl)-2-phenyl-N-((R)-1-phenylethyl)acetamide], the “Activity (% inhibition)” value is recorded as “A (a % inhibition of about 75%)”.
On to `C[C@H](NC(=O)[C@H](c1ccccc1)N1Cc2ccccc2C1=O)c1ccccc1` [Compound I-2, (S)-2-(1-oxoisoindolin-2-yl)-2-phenyl-N-((S)-1-phenylethyl)acetamide], for which the “Activity (% inhibition)” value is given as “A (a % inhibition of about 75%)”.
With `CCOC(=O)c1csc(NC(=O)[C@@H](c2ccccc2)N2Cc3ccccc3C2=O)n1` [Compound I-4, ethyl (R)-2-(2-(1-oxoisoindolin-2-yl)-2-phenylacetamido) thiazole-4-carboxylate], the “Activity (% inhibition)” value is “A (a % inhibition of about 75%)”.
Turning to `Cc1csc(NC(=O)[C@@H](c2ccccc2)N2Cc3ccccc3C2=O)n1` [Compound I-5, (R)-N-(4-methylthiazol-2-yl)-2-(1-oxoisoindolin-2-yl)-2-phenylacetamide], the “Activity (% inhibition)” value is on record as “A (a % inhibition of about 75%)”.
To `O=C(Nc1nc(C(F)(F)F)cs1)[C@@H](c1ccccc1)N1Cc2ccccc2C1=O` [Compound I-6, (R)-2-(1-oxoisoindolin-2-yl)-2-phenyl-N-(4-(trifluoromethyl)thiazol-2-yl)acetamide] belongs “A (a % inhibition of about 75%)”.
Consider `O=C(Nc1cccnc1)[C@@H](c1ccccc1)N1Cc2ccccc2C1=O` [Compound I-7, (R)-2-(1-oxoisoindolin-2-yl)-2-phenyl-N-(pyridin-3-yl) acetamide], for which the “Activity (% inhibition)” value was “A (a % inhibition of about 75%)”.
In the case of `O=C(Nc1ccncc1)[C@@H](c1ccccc1)N1Cc2ccccc2C1=O` [Compound I-8, (R)-2-(1-oxoisoindolin-2-yl)-2-phenyl-N-(pyridin-4-yl) acetamide], the “Activity (% inhibition)” value was “A (a % inhibition of about 75%)”.
Consider `CNC(=O)c1csc(NC(=O)[C@@H](c2ccccc2)N2Cc3ccccc3C2=O)n1` [Compound I-9, (R)-N-methyl-2-(2-(1-oxoisoindolin-2-yl)-2-phenylacetamido) thiazole-4-carboxamide], for which the “Activity (% inhibition)” value is recorded as “A (a % inhibition of about 75%)”.
`O=C(NCCN1CCOCC1)c1csc(NC(=O)[C@@H](c2ccccc2)N2Cc3ccccc3C2=O)n1` [Compound I-10, (R)-N-(2-morpholinoethyl)-2-(2-(1-oxoisoindolin-2-yl)-2-phenylacetamido)thiazole-4-carboxamide]: the “Activity (% inhibition)” value was “A (a % inhibition of about 75%)”.
Regarding `CN(C)CCCNC(=O)c1csc(NC(=O)[C@@H](c2ccccc2)N2Cc3ccccc3C2=O)n1` [Compound I-11, (R)-N-(3-(dimethylamino)propyl)-2-(2-(1-oxoisoindolin-2-yl)-2-phenylacetamido)thiazole-4-carboxamide], the “Activity (% inhibition)” value is reported as “A (a % inhibition of about 75%)”.
`O=C(Nc1nccs1)[C@H](c1cccc([N+](=O)[O-])c1)N1Cc2ccccc2C1=O` [Compound I-12, (S)-2-(3-nitrophenyl)-2-(1-oxoisoindolin-2-yl)-N-(thiazol-2-yl)acetamide]: the “Activity (% inhibition)” value was “A (a % inhibition of about 75%)”.
Consider `Nc1cccc([C@@H](C(=O)Nc2nccs2)N2Cc3ccccc3C2=O)c1` [Compound I-13, (S)-2-(3-aminophenyl)-2-(1-oxoisoindolin-2-yl)-N-(thiazol-2-yl)acetamide], for which the “Activity (% inhibition)” value was “A (a % inhibition of about 75%)”.
Next, `O=C(NCCCN1CCOCC1)c1csc(NC(=O)[C@@H](c2ccccc2)N2Cc3ccccc3C2=O)n1` [Compound I-14, (R)-N-(3-morpholinopropyl)-2-(2-(1-oxoisoindolin-2-yl)-2-phenylacetamido)thiazole-4-carboxamide]: “A (a % inhibition of about 75%)”; `CN(C)CCCCNC(=O)c1csc(NC(=O)[C@@H](c2ccccc2)N2Cc3ccccc3C2=O)n1` [Compound I-15, (R)-N-(4-(dimethylamino)butyl)-2-(2-(1-oxoisoindolin-2-yl)-2-phenylacetamido)thiazole-4-carboxamide]: “A (a % inhibition of about 75%)”; `CN(C)CCNC(=O)c1csc(NC(=O)[C@@H](c2ccccc2)N2Cc3ccccc3C2=O)n1` [Compound I-16, (R)-N-(2-(dimethylamino)ethyl)-2-(2-(1-oxoisoindolin-2-yl)-2-phenylacetamido)thiazole-4-carboxamide]: “A (a % inhibition of about 75%)”.
Take `NC(=O)c1csc(NC(=O)[C@@H](c2ccccc2)N2Cc3ccccc3C2=O)n1` [Compound I-17, (R)-2-(2-(1-oxoisoindolin-2-yl)-2-phenylacetamido)thiazole-4-carboxamide]: the “Activity (% inhibition)” value is recorded as “A (a % inhibition of about 75%)”.
On to `O=C(Nc1nccs1)[C@@H](c1cccc([N+](=O)[O-])c1)N1Cc2ccccc2C1=O` [Compound I-18, (R)-2-(3-nitrophenyl)-2-(1-oxoisoindolin-2-yl)-N-(thiazol-2-yl)acetamide], for which the “Activity (% inhibition)” value was “A (a % inhibition of about 75%)”.
In the case of `O=C(Nc1ncco1)[C@@H](c1ccccc1)N1Cc2ccccc2C1=O` [Compound I-19, (R)-N-(oxazol-2-yl)-2-(1-oxoisoindolin-2-yl)-2-phenylacetamide], the “Activity (% inhibition)” value is listed as “A (a % inhibition of about 75%)”.
To `O=C(Nc1ncco1)[C@H](c1ccccc1)N1Cc2ccccc2C1=O` [Compound I-20, (S)-N-(oxazol-2-yl)-2-(1-oxoisoindolin-2-yl)-2-phenylacetamide] belongs “A (a % inhibition of about 75%)”; to `O=C(Nc1nccs1)[C@H](c1ccccc1)N1Cc2ccccc2C1=O` [Compound I-21, (S)-2-(1-oxoisoindolin-2-yl)-2-phenyl-N-(thiazol-2-yl) acetamide], “B (a % inhibition of between about 50% to about 75%)”; to `O=C(Nc1nc(C(=O)N2CCOCC2)cs1)[C@@H](c1ccccc1)N1Cc2ccccc2C1=O` [Compound I-22, (R)-N-(4-(morpholine-4-carbonyl)thiazol-2-yl)-2-(1-oxoisoindolin-2-yl)-2-phenylacetamide], “A (a % inhibition of about 75%)”.
Regarding `CN(C)C1CCN(C(=O)c2csc(NC(=O)[C@@H](c3ccccc3)N3Cc4ccccc4C3=O)n2)CC1` [Compound I-23, (R)-N-(4-(4-(dimethylamino)piperidine-1-carbonyl)thiazol-2-yl)-2-(1-oxoisoindolin-2-yl)-2-phenylacetamide], the “Activity (% inhibition)” value is “A (a % inhibition of about 75%)”.
As to `O=C(Nc1nc(C(=O)N2CCC(N3CCOCC3)CC2)cs1)[C@@H](c1ccccc1)N1Cc2ccccc2C1=O` [Compound I-24, (R)-N-(4-(4-morpholinopiperidine-1-carbonyl)thiazol-2-yl)-2-(1-oxoisoindolin-2-yl)-2-phenylacetamide], the “Activity (% inhibition)” value is “A (a % inhibition of about 75%)”.
As for `CN1CCN(C(=O)c2csc(NC(=O)[C@@H](c3ccccc3)N3Cc4ccccc4C3=O)n2)CC1` [Compound I-25, (R)-N-(4-(4-methylpiperazine-1-carbonyl)thiazol-2-yl)-2-(1-oxoisoindolin-2-yl)-2-phenylacetamide], the “Activity (% inhibition)” value is “A (a % inhibition of about 75%)”.
